# Literature values, collected in US7745665B2, “Substituted phenethylamines” (Auspex Pharmaceuticals, Inc., priority 2007, dated 2010).
# Conditions: oxidation of the methylene group alpha to the nitrogen; humans
compound,measurement,value
"CNC[C@H](O)c1cccc(O)c1 [Phenylephrine, (R)-3-(1-hydroxy-2-methylamino-ethyl)-phenol]",hydroxymandelic acid metabolite as share of the recovered mass balance,more than 50%
